Source: US5929236A, “2-substituted morpholine and thiomorpholine derivatives as GABA-B antagonists” (Schering Corporation, priority 1995, dated 1999)

What was measured:
[1] = system: seizure in rats induced by PTZ; assay: Prevention of seizure in rats induced by PTZ; type: in vivo, rat; settings: PTZ model
Description: (§1) Animal Models for Absence Seizures
(§2) A. Snead, Eur. J. Pharmacol., 213, 343-349 (1992), teaches a pharmacological model for testing the effectiveness of GABAB antagonists in preventing seizures induced by intra-peritoneal (ip) administration of either γ-butyrolactone (GBL) or pentylenetetrazole (PTZ) to rats. The animal is treated with the test compound, then monitored after being subjected to a dose of either GBL or PTZ sufficient to induce seizures.

[2] = system: seizure in rats induced by GBL; assay: Prevention of seizure in rats induced by GBL; type: in vivo, rat; settings: 100 mg/kg GBL (ip)
Description: as §1, §2

CC1(C)COC(CC(=O)O)CN1 (single isomer, unassigned) [Example 6A]
SWD duration ([1]; 0.18 mg/kg, 20 min): 250 s
SWD duration ([1]; 0.18 mg/kg, 40 min): 235 s
SWD duration ([1]; 0.18 mg/kg, 60 min): 140 s
SWD duration ([1]; 0.18 mg/kg, 80 min): 60 s
SWD duration ([1]; 0.18 mg/kg, 100 min): 15 s
SWD duration ([1]; 0.18 mg/kg, 120 min): 0 s
SWD duration ([1]; 0.375 mg/kg, 20 min): 150 s
SWD duration ([1]; 0.375 mg/kg, 40 min): 140 s
SWD duration ([1]; 0.375 mg/kg, 60 min): 55 s
SWD duration ([1]; 0.375 mg/kg, 80 min): 25 s
SWD duration ([1]; 0.375 mg/kg, 100 min): 0 s
SWD duration ([1]; 0.375 mg/kg, 120 min): 0 s
SWD duration ([1]; 0.75 mg/kg, 20 min): 90 s
SWD duration ([1]; 0.75 mg/kg, 40 min): 70 s
SWD duration ([1]; 0.75 mg/kg, 60 min): 45 s
SWD duration ([1]; 0.75 mg/kg, 80 min): 0 s
SWD duration ([1]; 0.75 mg/kg, 100 min): 0 s
SWD duration ([1]; 0.75 mg/kg, 120 min): 0 s
SWD duration ([1]; 1.5 mg/kg, 20 min): 0 s
SWD duration ([1]; 1.5 mg/kg, 40 min): 0 s
SWD duration ([1]; 1.5 mg/kg, 60 min): 0 s
SWD duration ([1]; 1.5 mg/kg, 80 min): 0 s
SWD duration ([1]; 1.5 mg/kg, 100 min): 0 s
SWD duration ([1]; 1.5 mg/kg, 120 min): 0 s
SWD duration ([2]; 0.75 mg/kg, 20 min): 970 s
SWD duration ([2]; 0.75 mg/kg, 40 min): 1150 s
SWD duration ([2]; 0.75 mg/kg, 60 min): 500 s
SWD duration ([2]; 0.75 mg/kg, 80 min): 280 s
SWD duration ([2]; 0.75 mg/kg, 100 min): 50 s
SWD duration ([2]; 0.75 mg/kg, 120 min): 0 s
SWD duration ([2]; 1.5 mg/kg, 20 min): 560 s
SWD duration ([2]; 1.5 mg/kg, 40 min): 540 s
SWD duration ([2]; 1.5 mg/kg, 60 min): 0 s
SWD duration ([2]; 1.5 mg/kg, 80 min): 0 s
SWD duration ([2]; 1.5 mg/kg, 100 min): 0 s
SWD duration ([2]; 1.5 mg/kg, 120 min): 0 s
SWD duration ([2]; 3.0 mg/kg, 20 min): 0 s
SWD duration ([2]; 3.0 mg/kg, 40 min): 0 s
SWD duration ([2]; 3.0 mg/kg, 60 min): 0 s
SWD duration ([2]; 3.0 mg/kg, 80 min): 0 s
SWD duration ([2]; 3.0 mg/kg, 100 min): 0 s
SWD duration ([2]; 3.0 mg/kg, 120 min): 0 s
